Measured values reported in patent US4705805A, “Antithrombotic agent” (priority 1978, dated 1987).
≈ marks a conversion by molar mass, not a printed value. Like-named read-outs stand apart in the source and are kept apart here.

Assays:
[1] = test system: rabbit blood platelets (platelet rich plasma), thrombin-induced aggregation; assay: inhibition of platelet aggregation in rabbit platelet rich plasma (in vitro), induced by thrombin; assay type: cell-based; conditions: Oryctolagus cuniculus, read-out: percentage of inhibition, thrombin; for inhibition at 3 µg/mL: 3 μg/ml; for inhibition at 10 µg/mL: 10 μg/ml
Protocol: (§1) In this example, the inhibition of platelet aggregation in rabbit platelet rich plasma (in vitro) is tested.
(§2) The thus obtained blood is centrifuged at 1,000 rpm for 15 minutes to obtain platelet rich plasma (referred to as "PRP" hereinafter). The aggregation of blood platelets is observed using an aggregometer (made by Bryston Co.) and the degree of aggregation after the addition of aggregation promoting substances is measured by nephelometry, i.e., through increase in light transmission.
(§3) The PRP (0.9 ml) is placed in a silicon-coated cuvett of the aggregometer. Then, 0.05 ml of physiological saline solution containing various concentrations of test reagents or control reagents is added and the mixture is allowed to stand for one minute. Compounds promoting aggregation are then added and the absorbancy of the solution is measured and the percent inhibition of aggregation is calculated according to the following equation: [formula] C: Transmittancy showing the maximum percent aggregation by physiological saline solution
(§4) D: Transmittancy showing the maximum percent aggregation by sample
(§5) Test for the inhibition of platelet aggregation induced by ADP, collagen and thrombin.

[2] = test system: mice, death by ADP injection; assay: prevention of death of mice by ADP addition (in vivo), oral administration; conditions: for Mortality / Score (mortality): oral, 100 mg/Kg, ADP i.v. after one hour
Protocol: (§6) In this example, prevention of death of mice by ADP addition (in vivo) is tested. It is shown that intravenous administration of a great amount of ADP to mice causes aggregated blood platelets to be captured in the pulmonary capillaries so that the mice die of respiratory distress.
The test is carried out according to Roba's method. [Eur. J. Pharmacol. 37, 265-274 (1976)]. Specifically, CMC solution (0.3%) and CMC suspension containing the test compound and control compounds are orally administered to mice in a ratio of 0.1 ml/10 g (body weight). After one hour, an aqueous solution of ADP (60 mg/ml) is injected into the tail vein in a volume of 0.1 ml/10 g (body weight) every 10 seconds and the mortality is calculated.

[3] = test system: human platelet rich plasma, collagen-induced aggregation; assay: inhibition of platelet aggregation in human platelet rich plasma, induced by collagen; assay type: cell-based; conditions: read-out: percentage inhibition, collagen; for inhibition at 10 µg/mL: 10 μg/ml
Protocol: as §2, with “In this test, 9 vol. of blood is sampled from the carotid artery of rabbits (2 to 2.5 Kg) and placed in a silicon-coated flask containing 1 vol. of 3.8% sodium citrate. The thus” for “The thus”
as §3, §4
(§7) In this example, the same procedures are repeated as in Example 10 except that human platelet rich plasma is used in place of rabbit platelet rich plasma.

[4] = test system: rabbit blood platelets (platelet rich plasma), ADP-induced aggregation; assay: inhibition of platelet aggregation in rabbit platelet rich plasma (in vitro), induced by ADP; assay type: cell-based; conditions: Oryctolagus cuniculus, Platelet; for IC50 / inhibition at 1 µg/mL / inhibition at 3 µg/mL / inhibition at 10 µg/mL / inhibition at 30 µg/mL: rabbit PRP, ADP 10^-5 M; for inhibition at 1 µg/mL: 1 μg/ml; for inhibition at 3 µg/mL: 3 μg/ml; for inhibition at 10 µg/mL: 10 μg/ml; for inhibition at 30 µg/mL: 30 μg/ml
Protocol: as §1
as §2, with “In this test, 9 vol. of blood is sampled from the carotid artery of rabbits (2 to 2.5 Kg) and placed in a silicon-coated flask containing 1 vol. of 3.8% sodium citrate. The thus” for “The thus”
as §3, §4, §5

[5] = test system: human platelet rich plasma, ADP-induced aggregation; assay: inhibition of platelet aggregation in human platelet rich plasma, induced by ADP; assay type: cell-based; conditions: read-out: percentage inhibition, ADP; for inhibition at 10 µg/mL: 10 μg/ml
Protocol: as §2, with “In this test, 9 vol. of blood is sampled from the carotid artery of rabbits (2 to 2.5 Kg) and placed in a silicon-coated flask containing 1 vol. of 3.8% sodium citrate. The thus” for “The thus”
as §3, §4, §7

[6] = test system: rabbit blood platelets (platelet rich plasma), collagen-induced aggregation; assay: inhibition of platelet aggregation in rabbit platelet rich plasma (in vitro), induced by collagen; assay type: cell-based; conditions: Oryctolagus cuniculus, Platelet; for inhibition at 1 µg/mL: 1 μg/ml; for inhibition at 3 µg/mL: 3 μg/ml; for inhibition at 10 µg/mL: 10 μg/ml
Protocol: as §1
as §2, with “In this test, 9 vol. of blood is sampled from the carotid artery of rabbits (2 to 2.5 Kg) and placed in a silicon-coated flask containing 1 vol. of 3.8% sodium citrate. The thus” for “The thus”
as §3, §4, §5

[7] = test system: mice, death by ADP injection; assay: prevention of death of mice by ADP addition (in vivo), intravenous administration; conditions: 10 mg/Kg, ADP-Na ten minutes thereafter
Protocol: as §6
In order to check the effect by intravenous administration, physiological saline solution and physiological saline solution containing the test reagents (0.5 mg/ml) is injected into the tail vein in a volume of 0.2 ml/10 g (body weight). Ten minutes thereafter (10 mg/kg) ADP-Na is injected into the tail vein as in the oral test, and the mortality is calculated.

[8] = test system: mice (male dd-strain), death by sodium arachidonate; assay: prevention of death of mice by sodium arachidonate; assay type: in vivo; conditions: sodium arachidonate 50 mg/Kg i.v. two hours thereafter
Protocol: When a large amount of arachidonic acid is intravenously administrated to a mouse, blood platelet aggregates are formed and caught by the microvasculature system of the lung. As a result, the mouse expires due to dyspnea.
To examine the effect of a medicine in vivo, the medicine is orally administered to test animals and thereafter arachidonic acid is administered.
In this example, the test was carried out according to the method by Uzunova A. D. et al. [Prostaglandins 13, p. 995 (1977)] Specifically, a CMC suspension consisting of 0.3% CMC solution and a medicine (test compound and reference medicine) was orally administered to mice (male dd-strain, 22-24 g). Two hours thereafter, 50 mg/Kg of sodium arachidonate was intravenously administered to the mice.

mouse (male dd-strain) = assay: acute toxicity, Behrens-Karber's method; assay type: in vivo; conditions: oral
Protocol: (§8) In this example, the acute toxicity of compounds of the invention is determined by Behrens-Karber's method using, 5 male dd-strain for each group weighing 20±1 g. A 0.3% CMC suspension of the test compound (concentration of the test compound: 100 mg/ml) is then orally administered to each mouse.

[9] = acute toxicity, Behrens-Karber's method; assay type: in vivo; conditions: in vivo; mouse, oral
Protocol: as §8

solubility = assay type: physicochemical; conditions: for Solubility in ether, benzene, chloroform: chloroform, and the like
[10] = read-out: percentage of inhibition, ADP
[11] = read-out: percentage of inhibition, collagen
[12] = rabbit PRP, read-out: percentage of inhibition, collagen
[13] = rabbit PRP, 30 μg/ml, read-out: percentage of inhibition, collagen

Row | Compound | Mortality [2] [%] | Score (mortality) [2] | Mortality [7] [%] | Score (mortality) [7] | Mortality ([8]; oral 25 mg/Kg) [%] | Score (mortality) ([8]; oral 25 mg/Kg) | mortality rate (mouse (male dd-strain); 2 g/Kg) | LD50 [9] [mg/kg] | inhibition at 10 µg/mL ([3]; human PRP) [%] | inhibition at 30 µg/mL ([3]; human PRP, 30 μg/ml) [%] | inhibition at 100 µg/mL ([3]; human PRP, 100 μg/ml) [%] | IC50 [4] [µg/mL] | inhibition at 3 µg/mL [4, 10] [%] | inhibition at 10 µg/mL [4, 10] [%] | inhibition at 30 µg/mL [4, 10] [%] | inhibition at 10 µg/mL ([5]; human PRP) [%] | inhibition at 30 µg/mL ([5]; human PRP, 30 μg/ml) [%] | inhibition at 100 µg/mL ([5]; human PRP, 100 μg/ml) [%] | inhibition at 3 µg/mL [6, 12] [%] | inhibition at 10 µg/mL [6, 12] [%] | other results
1 | CC(=O)Oc1ccccc1C(=O)O [Aspirin, reference compound] | 80 | 8/10 | 70 | 7/10 | 10 | 1/10 | – | – | – | – | – | – | – | – | – | – | – | – | – | – | inhibition at 30 µg/mL [1]: 21%; inhibition at 100 µg/mL [1]: 65%; effect in reducing mortality (ADP) ([2]; in words, oral or intravenous administration, Table 3): ineffective; inhibition at 30 µg/mL ([3]; Homo sapiens): 48%; inhibition at 100 µg/mL ([3]; Homo sapiens): 86%; inhibition at 300 µg/mL [4, 10]: 0%; inhibition at 30 µg/mL ([5]; Homo sapiens): 7%; inhibition at 100 µg/mL ([5]; Homo sapiens): 20%; inhibition at 30 µg/mL [6, 11]: 20%; inhibition at 100 µg/mL [6, 11]: 34%; inhibition at 300 µg/mL [6, 11]: 48%; Mortality ([8]; oral 12.5 mg/Kg): 50%; Score (mortality) ([8]; oral 12.5 mg/Kg): 5/10
2 | O=C(NCCO)c1ccccc1SSc1ccccc1C(=O)NCCO [Compound III, 2,2'-dithiobis(N-2-hydroxyethylbenzamide)] | 20 | 2/10 | – | – | – | – | 1/5 | ≥ 2000 | 20 | 66 | 100 | 4.8 (≈ 12.2 µM) | 33.4 | 69.1 | 100 | 15 | 43 | 98 | 88.5 | 100 | mortality rate (mouse (male dd-strain); 1 g/Kg): 0/5; mortality rate (mouse (male dd-strain); 3 g/Kg): 4/5; mortality rate (mouse (male dd-strain); 4 g/Kg): 4/5; inhibition at 1 µg/mL [4, 10]: 21.3%; IC50 ([6]; rabbit PRP): 1.1 µg/mL (≈ 2.8 µM); inhibition at 0.3 µg/mL ([6]; rabbit PRP, 0.3 μg/ml, read-out: percentage of inhibition, collagen): 11%; inhibition at 1 µg/mL [6, 12]: 39.2%; Mortality ([8]; oral 50 mg/Kg): 70%; Score (mortality) ([8]; oral 50 mg/Kg): 7/10; Mortality ([8]; oral 100 mg/Kg): 40%; Score (mortality) ([8]; oral 100 mg/Kg): 4/20
3 | O=C(c1ccccc1SSc1ccccc1C(=O)N1CCN(Cc2ccccc2)CC1)N1CCN(Cc2ccccc2)CC1 [Compound IV, 2,2'-dithiobis(N'-benzylbenzpiperazide)] | 30 | 3/10 | 50 | 5/10 | – | – | – | ≥ 4000 | – | 12 | 75 | 9.8 (≈ 15.7 µM) | 28 | 44.7 | 83.3 | – | 0 | 58 | 7.6 | 46.5 | Solubility in ether, benzene, chloroform (solubility): Insoluble; Solubility in methanol, ethanol (solubility; methanol, ethanol, and the like): slightly soluble; Solubility in water (solubility; water, etc.): Readily soluble; inhibition at 3 µg/mL ([1]; rabbit PRP): 31%; inhibition at 10 µg/mL ([1]; rabbit PRP): 58%; inhibition at 30 µg/mL ([1]; rabbit PRP, 30 μg/ml): 84%; IC50 ([6]; rabbit PRP): 9.8 µg/mL (≈ 15.7 µM); inhibition at 30 µg/mL [6, 13]: 100%
4 | CC(O)CNC(=O)c1ccccc1SSc1ccccc1C(=O)NCC(C)O (stereo not drawn) [Compound V, 2,2'-dithiobis(N-2-hydroxypropylbenzamide)] | – | – | – | – | 40 | 8/20 | 0/5 | ≥ 3000 | 39 | 100 | – | 7.4 (≈ 17.6 µM) | 25.5 | 54 | 90 | 61 | 81 | – | 83.5 | 100 | mortality rate (mouse (male dd-strain); 3 g/Kg): 2/5; mortality rate (mouse (male dd-strain); 4 g/Kg): 4/5; inhibition at 1 µg/mL ([1]; rabbit PRP, 1 μg/ml): 10%; inhibition at 3 µg/mL ([1]; rabbit PRP): 57%; inhibition at 10 µg/mL ([1]; rabbit PRP): 89.6%; inhibition at 30 µg/mL ([1]; rabbit PRP, 30 μg/ml): 95%; inhibition at 3 µg/mL ([3]; human PRP, 3 μg/ml): 13%; inhibition at 1 µg/mL [4, 10]: 12.5%; inhibition at 3 µg/mL ([5]; human PRP, 3 μg/ml): 47%; inhibition at 1 µg/mL [6, 12]: 25.7%; Mortality ([8]; oral 50 mg/Kg): 20%; Score (mortality) ([8]; oral 50 mg/Kg): 4/20; Mortality ([8]; oral 100 mg/Kg): 20%; Score (mortality) ([8]; oral 100 mg/Kg): 4/20
5 | O=C(NCO)c1ccccc1SSc1ccccc1C(=O)NCO [Compound XV, 2,2'-dithiobis(N-hydroxymethylbenzamide)] | – | – | – | – | – | – | – | – | 29 | 68 | 100 | – | – | 0 | 46 | 5 | 45 | 90 | 22 | 56 | Solubility in DMSO, DMF (solubility; DMSO, DMF, etc.): Soluble; Solubility in ethanol, water (solubility; ethanol, water, and the like): poorly soluble; Solubility in ether, benzene, chloroform (solubility): Insoluble; inhibition at 30 µg/mL [6, 13]: 100%
